From ChEMBL document CHEMBL3046942, “Synthesis and biological activity of new cycloalkylthiophene-Schiff bases and their Cr(III) and Zn(II) complexes” (2010)
Activity calls are given as the source filed them. No cut-off for these calls is given here.

Experiments:
Format in all cases: functional
Candida albicans = assay: Antifungal activity against Candida albicans Y-1200-NIH at 0.25 ug/ml after 24 hr by agar well diffusion method; settings: for zone of inhibition at 0.25 µg/mL: read-out: DIZ
Brucella abortus = assay: Antibacterial activity against Brucella abortus RSKK-03026 at 0.25 ug/ml after 24 hr by agar well diffusion method
Shigella boydii [1] = assay: Antibacterial activity against Shigella boydii type 6 RSKK-96043 at 0.25 ug/ml after 24 hr by agar well diffusion method; settings: type 6 RSKK-96043, 24 h, read-out: DIZ
Shigella boydii [2] = assay: Antibacterial activity against Shigella boydii type 16 at 0.25 ug/ml after 24 hr by agar well diffusion method; settings: type 16, 24 h, read-out: DIZ
Shigella boydii [3] = assay: Antibacterial activity against Shigella boydii type 11 at 0.25 ug/ml after 24 hr by agar well diffusion method; settings: type 11, 24 h, read-out: DIZ
Salmonella typhimurium [4] = assay: Antibacterial activity against Salmonella enterica subsp. enterica serovar Typhi H NCTC 901.8394 at 0.25 ug/ml after 24 hr by agar well diffusion method; settings: H NCTC 901.8394, 24 h, read-out: DIZ
Proteus [5] = assay: Antibacterial activity against Proteus OX2 Wrah at 0.25 ug/ml after 24 hr by agar well diffusion method
Escherichia coli [6] = assay: Antibacterial activity against Escherichia coli ATCC 1280 at 0.25 ug/ml after 24 hr by agar well diffusion method; settings: ATCC 1280, 24 h, read-out: DIZ
Pseudomonas putida [7] = assay: Antibacterial activity against Pseudomonas putida at 0.25 ug/ml after 24 hr by agar well diffusion method; settings: for zone of inhibition at 0.25 µg/mL: read-out: DIZ
Listeria monocytogenes [8] = assay: Antibacterial activity against Listeria monocytogenes ATCC 19115 at 0.25 ug/ml after 24 hr by agar well diffusion method; settings: for zone of inhibition at 0.25 µg/mL: ATCC 19115, 24 h, read-out: DIZ
Staphylococcus aureus [9] = assay: Antibacterial activity against Staphylococcus aureus ATCC 25923 at 0.25 ug/ml after 24 hr by agar well diffusion method; settings: ATCC 25923, 24 h, read-out: DIZ
Shigella boydii [10] = assay: Antibacterial activity against Shigella boydii type 6 RSKK-96043 at 30 ug after 24 hr by agar well diffusion method; settings: type 6 RSKK-96043, 24 h, read-out: DIZ
Shigella boydii [11] = assay: Antibacterial activity against Shigella boydii type 16 at 30 ug after 24 hr by agar well diffusion method; settings: type 16, 24 h, read-out: DIZ
Shigella boydii [12] = assay: Antibacterial activity against Shigella boydii type 11 at 30 ug after 24 hr by agar well diffusion method; settings: type 11, 24 h, read-out: DIZ
Salmonella typhimurium [13] = assay: Antibacterial activity against Salmonella enterica subsp. enterica serovar Typhi H NCTC 901.8394 at 30 ug after 24 hr by agar well diffusion method; settings: H NCTC 901.8394, 24 h, read-out: DIZ
Proteus [14] = assay: Antibacterial activity against Proteus OX2 Wrah at 30 ug after 24 hr by agar well diffusion method; settings: read-out: DIZ
Pseudomonas putida [15] = assay: Antibacterial activity against Pseudomonas putida at 30 ug after 24 hr by agar well diffusion method; settings: read-out: DIZ
Escherichia coli [16] = assay: Antibacterial activity against Escherichia coli ATCC 1280 at 30 ug after 24 hr by agar well diffusion method; settings: ATCC 1280, 24 h, read-out: DIZ
Listeria monocytogenes [17] = assay: Antibacterial activity against Listeria monocytogenes ATCC 19115 at 30 ug after 24 hr by agar well diffusion method; settings: ATCC 19115, 24 h, read-out: DIZ
Staphylococcus aureus [18] = assay: Antibacterial activity against Staphylococcus aureus ATCC 25923 at 30 ug after 24 hr by agar well diffusion method; settings: ATCC 25923, 24 h, read-out: DIZ

SMILES | zone of inhibition at 0.25 µg/mL (Candida albicans) [mm] | diameter of the inhibition zone (DIZ) (Brucella abortus) | zone of inhibition at 0.25 µg/mL (Shigella boydii [1]) [mm] | zone of inhibition at 0.25 µg/mL (Shigella boydii [2]) [mm] | zone of inhibition at 0.25 µg/mL (Shigella boydii [3]) [mm] | zone of inhibition at 0.25 µg/mL (Salmonella typhimurium [4]) [mm] | zone of inhibition at 0.25 µg/mL (Escherichia coli [6]) [mm] | zone of inhibition at 0.25 µg/mL (Pseudomonas putida [7]) [mm] | zone of inhibition at 0.25 µg/mL (Listeria monocytogenes [8]) [mm] | zone of inhibition at 0.25 µg/mL (Staphylococcus aureus [9]) [mm] | diameter of the inhibition zone (DIZ) (Proteus [5]) | other results
CCOC(=O)c1c(/N=C/c2c(O)ccc3ccccc23)sc2c1CCC2 | 14 | inactive | 6 | 7 | 8 | 6 | 6 | 8 | 7 | 14 | – | zone of inhibition at 0.25 µg/mL (Proteus [5]; read-out: DIZ): 5 mm
CCOC(=O)c1c(/N=C/c2c(O)ccc3ccccc23)sc2c1CCCC2 | – | inactive | 7 | 8 | 7 | 7 | 6 | 7 | 9 | 9 | inactive | diameter of the inhibition zone (DIZ) (Candida albicans): inactive
CCOC(=O)c1c(/N=C/c2c(O)ccc3ccccc23)sc2c1CCCCC2 | 11 | – | 7 | 8 | 8 | 8 | 9 | – | – | 9 | inactive | zone of inhibition at 0.25 µg/mL (Brucella abortus; RSKK-03026, 24 h, read-out: DIZ): 5 mm; diameter of the inhibition zone (DIZ) (Pseudomonas putida [7]): inactive; diameter of the inhibition zone (DIZ) (Listeria monocytogenes [8]): inactive
CC1(C)S[C@@H]2[C@H](NC(=O)[C@H](N)c3ccc(O)cc3)C(=O)N2[C@H]1C(=O)O [AMOXICILLIN] | – | – | – | – | – | – | – | – | – | – | – | zone of inhibition at 30 µg/disc (Shigella boydii [10]): 19 mm; zone of inhibition at 30 µg/disc (Shigella boydii [11]): 14 mm; zone of inhibition at 30 µg/disc (Shigella boydii [12]): 24 mm; zone of inhibition at 30 µg/disc (Salmonella typhimurium [13]): 19 mm; zone of inhibition at 30 µg/disc (Proteus [14]): 17 mm; zone of inhibition at 30 µg/disc (Pseudomonas putida [15]): 15 mm; zone of inhibition at 30 µg/disc (Escherichia coli [16]): 14 mm; zone of inhibition at 30 µg/disc (Listeria monocytogenes [17]): 22 mm; zone of inhibition at 30 µg/disc (Staphylococcus aureus [18]): 30 mm
